{"source": "patent US20090215783A1", "about": "“COMPOSITION FOR INDUCTION OR INHIBITION OF STEM CELL DIFFERENTIATION” (CHOONGWAE PHARMA CORPORATION, priority 2006, published 2009)", "key": {"[1]": {"system": "human bone marrow derived-mesenchymal stem cells (hBMMSC)", "experiment": "Osteogenesis modulating activity assay by test compound alone (ALP activity)", "type": "cell-based", "details": "for ALP level enhanced: 20 μM, treated alone to hBMMSC; for fold induction at 20 µM: Homo sapiens, 168 h, hBMMSC, 20 μM test compound alone, six to seven days, read-out: Osteogenesis: fold change of ALP activity compared with DMSO control", "how_it_was_run": "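hBMMSC from normal subjects were treated with compound at 20 μM final (0.01% DMSO) at 37° C, 5% CO2, with medium and compound renewed every two days. Alkaline phosphatase activity in cell lysates was measured colorimetrically after six to seven days.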"}, "[2]": {"system": "Mouse embryonic stem (ES) cells, TC1", "experiment": "Cardiomyogenesis modulating activity assay (alpha-MHC promoter EGFP, embryoid bodies, FACS/fluorescence microscopy)", "type": "cell-based", "details": "for Cardiomyogenesis: fold change of EGFP expression level compared with DMSO control: embryoid bodies treated for 5 days", "how_it_was_run": "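Mouse TC1 ES cells carrying an alpha-MHC promoter-EGFP reporter were formed into embryoid bodies (~600 cells, 2 days hanging drop, 2 days suspension), plated, then exposed to compounds (final 0.05% DMSO) for 5 days. Cardiomyogenesis assessed by EGFP via FACS after trypsin dissociation, fluorescence microscopy, and daily counts of beating EBs.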"}, "[3]": {"system": "human bone marrow derived-mesenchymal stem cells (hBMMSC)", "experiment": "Osteogenesis modulating activity with osteogenic induction cocktails (ALP activity, mineralization)", "type": "cell-based", "details": "for mineralization of hBMMSC: co-treated with osteogenic induction cocktails (OIC); for stimulation of mineralization at various concentrations: even at the 0.5 μM", "experimental": "Cell culture: Human bone marrow derived-mesenchymal stem cells (hBMMSC) were isolated from normal subjects.\nOsteogenesis modulating activity of test compounds with induction media: hBMMSC were culture with culture media containing osteogenic induction cocktails (OIC, 0.1 μM dexamethasone, 50 μM ascorbate-2-phosphate, 10 mM b-glycerophosphate). Four to five days after incubation, Alkaline phosphatase (ALP) activity of cell lysates were measured by colorimetry. For the determination of mineralization within the cells, Von Kossa staining or Alizarin Red S assay was performed 10-14 days after incubation."}, "hBMMSC": {"system": "hBMMSC", "experiment": "Cell proliferation assay (CellTiter 96) in hBMMSC", "type": "cell-based, human", "details": "20 μM, treated alone", "experimental": "Cell proliferation assay: To investigate the cytotoxicity of the test compounds for hBMMSC, hBMMSC were exposed to the test compounds for 6-7 days at the same condition above (method b and c). Cell proliferation was assessed using CellTiter 96 Aqueous One Solution (Promega, #G3581). Absorbance at 490 nm of each well was determined with a microplate reader (Molecular Device) and % growth inhibition was calculated compared with control."}, "ALP mRNA in hBMMSC": {"system": "ALP mRNA in hBMMSC", "experiment": "RT-PCR of alkaline phosphatase (ALP) mRNA in hBMMSC", "type": "cell-based, human", "details": "compound treatment for 4 days", "experimental": "RT-PCR. To analyze the mRNA levels for Alkaline phosphatase (ALP), total RNA was isolated using Trizol (Invitrogen-GIBCO-BRL, Baltimore, Md.) from hBMMSC with or without compound treatment for 4 days. 2 μg RNA was reverse transcribed in a total volume of 20 μl with random hexamer (50 ng), and using the Superscript II reverse transcription system (Invitrogen-GIBCO-BRL), according to manufacturer's guidelines. PCR was carried out in a 50 μl volume containing 5 μl cDNA, 100 pmol primers, 100 μM dNTPs, 1×Taq buffer and 1.5 mM MgCl2. Reaction mixtures were heated to 80° C. for 10 min, after which Taq was added. cDNAs were amplified for 25 ([…]) or 15 (GAPDH) cycles. One round of amplification consisted of 1 min at 94° C., 2 min at 60° C., and 2 min at 72° C., with a final extension time of 10 min at 72° C. The PCR products were resolved and visualized by electrophoresis in a 2% gel, stained with ethidium bromide. ALP PCR primers used were, 5′-[…]-3′ and 5′-[…]-3′. Primer pairs for GAPDH were 5′-[…]-3′ and 5′-[…]-3′. A housekeeping gene, GADPH was used as a control."}, "[4]": {"system": "ANP and Nkx2.5 mRNA in the ES cells", "experiment": "Real time RT-PCR of cardiomyogenesis marker genes ANP and Nkx2.5", "type": "cell-based, mouse", "details": "ES cells treated for 7 and 10 days", "experimental": "d. Real time RT-PCR: To analyze the mRNA levels of cardiomyogenesis marker genes, Atrial Natriuretic Peptide (ANP) and Nk×2.5, total RNA was isolated using Trizol (Invitrogen-GIBCO-BRL, Baltimore, Md., USA) from stem cells with or without Compound E treatment for 7 days and 10 days. Relative expression level of each mRNA was measured."}, "[5]": {"system": "β-catenin/TCF transcription", "experiment": "TopFlash reporter gene assay in SW480 cells", "type": "cell-based", "details": "Homo sapiens; SW480 cells transfected with β-catenin/TCF luciferase construct; 24 hours treatment; dual luciferase assay; read-out: IC50, inhibition of β-catenin/TCF reporter gene construct", "experimental": "FIG. 2. Compound A (Serial No. 111 in Table 2) inhibits β-catenin/TCF transcription. […] SW480 cells (10^5) were transfected with β-catenin/TCF luciferase construct. Cells were treated with Compound A (1-50 μM). 24 hours after the treatment lysates were prepared and subjected to dual luciferase assay.\nFIG. 3. Compound B (Serial No. 10 in Table 2) inhibits β-catenin/TCF transcription. […] SW480 cells ([…]) were transfected with β-catenin/TCF luciferase construct. Cells were treated with Compound B (1-50 μM). 24 hours after treatment lysates were prepared and subjected to dual luciferase assay.\nSW480 cells were transfected using Superfect™ transfection reagent (Qiagen, 301307). Cells were trypsinized briefly 1 day before transfection and plated on 6 well plate (5×10^5 cells/well) so that they were 50-80% confluent on the day of transfection.\nFour microgram (TOPFlash) and one microgram (pRL-null) of DNAs were diluted in […] of serum-free medium, and 30 μl of Superfect™ transfection reagent was added. The DNA-Superfect mixture was incubated at room temperature for 15 min, and then, 1 ml of 10% FBS DMEM was added to this complex for an additional 3 hours of incubation. While complexes were forming, cells were washed with PBS twice without antibiotics.\nThe DNA-Superfect™ transfection reagent complexes were applied to the cells before incubating at 37° C. at 5% CO2 for 3 hours. […]"}}, "data": [{"smiles": "O=C1C(Cc2ccc(OCc3ccccc3)cc2)N2C(=O)CN(Cc3ccc(F)cc3)N(C(=O)NCc3ccccc3)C2CN1Cc1cccc(C(F)(F)F)c1", "note": "(stereo not drawn) [#66]", "values": [{"measurement": "ALP level enhanced", "setting": "[1]", "value": 202, "unit": "%"}, {"measurement": "fold induction at 20 µM", "setting": "[1]", "value": 2.02}, {"measurement": "Cardiomyogenesis: fold change of EGFP expression level compared with DMSO control", "setting": "[2]; FACS", "value": 3.13, "unit": "fold"}, {"measurement": "mineralization of hBMMSC", "setting": "[3]", "value": "strongly induced mineralization"}, {"measurement": "stimulation of mineralization at various concentrations", "setting": "[3]", "value": "osteogenesis inducing activity"}, {"measurement": "cell proliferation", "setting": "hBMMSC", "value": 83, "unit": "%"}, {"measurement": "ALP mRNA expression", "setting": "ALP mRNA in hBMMSC", "value": "increased"}]}, {"smiles": "O=C1[C@H](Cc2ccc(F)c(F)c2)N2C(=O)CN(Cc3ccc(F)cc3)N(C(=O)NCc3ccccc3)[C@H]2CN1Cc1cccc(C(F)(F)F)c1", "note": "[#71]", "values": [{"measurement": "expression of fluorescence under the fluorescence microscope compared with DMSO control", "setting": "[2]; 10 μM, Day 5", "value": "significantly enhanced"}, {"measurement": "fold increase of alpha-MHC positive cells compared to DMSO treated EB", "setting": "[2]; 10 μM, FACS", "value": 4.6, "unit": "fold"}, {"measurement": "cell population expressing fluorescence (alpha-MHC positive)", "setting": "[2]; 10 μM, FACS analysis of embryoid bodies", "value": 2.50, "unit": "%"}, {"measurement": "Cardiomyogenesis: fold change of EGFP expression level compared with DMSO control", "setting": "[2]; FACS", "value": 4.63, "unit": "fold"}, {"measurement": "cardiomyogenesis differentiation promoting effect at low concentration", "setting": "[2]; even at the 0.3 μM", "value": "distinctive"}, {"measurement": "cardiomyogenesis differentiation promoting activity (EGFP expression), concentration dependence", "setting": "[2]; various concentrations", "value": "concentration-dependent"}, {"measurement": "expression level of ANP mRNA compared with DMSO control", "setting": "[4]", "value": "strongly increased"}, {"measurement": "expression level of Nkx2.5 mRNA compared with DMSO control", "setting": "[4]", "value": "strongly increased"}]}, {"smiles": "O=C1[C@H](Cc2ccc(Cl)cc2)N2C(=O)CN(Cc3ccccc3)N(C(=O)NCc3ccccc3)[C@H]2CN1CCc1ccc(Cl)cc1", "note": "[#82]", "values": [{"measurement": "ALP level enhanced", "setting": "[1]", "value": 200, "unit": "%"}, {"measurement": "fold induction at 20 µM", "setting": "[1]", "value": 2}, {"measurement": "Cardiomyogenesis: fold change of EGFP expression level compared with DMSO control", "setting": "[2]; FACS", "value": 0.97, "unit": "fold"}, {"measurement": "mineralization of hBMMSC", "setting": "[3]", "value": "strongly induced mineralization"}, {"measurement": "stimulation of mineralization at various concentrations", "setting": "[3]", "value": "osteogenesis inducing activity"}, {"measurement": "cell proliferation", "setting": "hBMMSC", "value": 127, "unit": "%"}, {"measurement": "ALP mRNA expression", "setting": "ALP mRNA in hBMMSC", "value": "increased"}]}, {"smiles": "CCCC[C@H]1C(=O)N(CCc2ccc(OC)c(OC)c2)C[C@H]2N1C(=O)N(C)N2C(=O)NCc1ccccc1", "note": "[#102]", "values": [{"measurement": "fold induction at 20 µM", "setting": "[1]", "value": 1.61}, {"measurement": "Cardiomyogenesis: fold change of EGFP expression level compared with DMSO control", "setting": "[2]; FACS", "value": 1.01, "unit": "fold"}]}, {"smiles": "CCC(C)[C@H]1C(=O)N(CCC(c2ccccc2)c2ccccc2)C[C@H]2N1C(=O)N(C)N2C(=O)NCc1ccccc1", "note": "(stereo partly drawn) [#103]", "values": [{"measurement": "fold induction at 20 µM", "setting": "[1]", "value": 0.98}, {"measurement": "Cardiomyogenesis: fold change of EGFP expression level compared with DMSO control", "setting": "[2]; FACS", "value": 1.98, "unit": "fold"}]}, {"smiles": "CCC(CC)N1CC2N(C(=O)N(C)N2C(=O)NCc2ccccc2)[C@@H](Cc2ccc(O)cc2)C1=O", "note": "(stereo partly drawn) [#104]", "values": [{"measurement": "fold induction at 20 µM", "setting": "[1]", "value": 1.42}, {"measurement": "Cardiomyogenesis: fold change of EGFP expression level compared with DMSO control", "setting": "[2]; FACS", "value": 0.62, "unit": "fold"}]}, {"smiles": "CC(C)C[C@H]1C(=O)N(C2CCCCC2)C[C@H]2N1C(=O)N(C)N2C(=O)NCc1ccccc1", "note": "[#105]", "values": [{"measurement": "fold induction at 20 µM", "setting": "[1]", "value": 0.8}, {"measurement": "Cardiomyogenesis: fold change of EGFP expression level compared with DMSO control", "setting": "[2]; FACS", "value": 1.12, "unit": "fold"}]}, {"smiles": "CC(C)[C@H]1C(=O)N(Cc2cccc(Br)c2)C[C@H]2N1C(=O)N(C)N2C(=O)NCc1ccccc1", "note": "[#106]", "values": [{"measurement": "fold induction at 20 µM", "setting": "[1]", "value": 0.37}, {"measurement": "Cardiomyogenesis: fold change of EGFP expression level compared with DMSO control", "setting": "[2]; FACS", "value": 1.25, "unit": "fold"}]}, {"smiles": "CCCCOCCCN1C[C@H]2N(C(=O)N(C)N2C(=O)NCc2ccccc2)[C@@H](CCSC)C1=O", "note": "[#107]", "values": [{"measurement": "fold induction at 20 µM", "setting": "[1]", "value": 0.66}, {"measurement": "Cardiomyogenesis: fold change of EGFP expression level compared with DMSO control", "setting": "[2]; FACS", "value": 0.59, "unit": "fold"}]}, {"smiles": "CN1C(=O)N2C(CN(CCSCc3ccccc3)C(=O)[C@@H]2Cc2ccc(O)cc2)N1C(=O)NCc1ccccc1", "note": "(stereo partly drawn) [#108]", "values": [{"measurement": "fold induction at 20 µM", "setting": "[1]", "value": 0.94}, {"measurement": "Cardiomyogenesis: fold change of EGFP expression level compared with DMSO control", "setting": "[2]; FACS", "value": 1.19, "unit": "fold"}]}, {"smiles": "CCC(C)[C@H]1C(=O)N(Cc2cccc(Cl)c2)C[C@H]2N1C(=O)N(C)N2C(=O)NCc1ccccc1", "note": "(stereo partly drawn) [#109]", "values": [{"measurement": "fold induction at 20 µM", "setting": "[1]", "value": 1}, {"measurement": "Cardiomyogenesis: fold change of EGFP expression level compared with DMSO control", "setting": "[2]; FACS", "value": 0.97, "unit": "fold"}]}, {"smiles": "NC(=O)CC1C(=O)N(CCSCc2ccccc2)CC2N1C(=O)CN(Cc1ccc(F)cc1)N2C(=O)NCc1ccccc1", "note": "(stereo not drawn) [#110]", "values": [{"measurement": "fold induction at 20 µM", "setting": "[1]", "value": 0.63}, {"measurement": "Cardiomyogenesis: fold change of EGFP expression level compared with DMSO control", "setting": "[2]; FACS", "value": 1.18, "unit": "fold"}]}, {"smiles": "CN1CC(=S)N2[C@H](Cc3ccc(O)cc3)C(=O)N(Cc3cccc4ccccc34)C[C@H]2N1C(=O)NCc1ccccc1", "note": "[#111]", "values": [{"measurement": "Cardiomyogenesis: fold change of EGFP expression level compared with DMSO control", "setting": "[2]; FACS", "value": 0.10, "unit": "fold"}, {"measurement": "IC50", "setting": "[5]", "value": 1460, "unit": "nM"}]}]}
